In patent US20110306636A1, “OXAZOLE PYRIDINE DERIVATIVES USEFUL AS S1P1 RECEPTOR AGONISTS” (Merck Serono SA, priority 2009, published 2011):
Counter-ions that a name gives are not always drawn. Like-named read-outs stand apart in the source and are kept apart here.

What was measured:
S1P1 [1] = target: T1, S1P1 (Homo sapiens, UniProt P21453); test: 35S-GTPγS binding assay, S1P1 membranes; assay type: biochemical; conditions: membranes from CHO cells expressing S1P1; read-out: S1P1/GTPG EC50
Description: (§1) Membranes Preparation: Membranes were prepared from CHO cells expressing S1P1 or S1P3 for use in ligand and 35S-GTPγS binding studies. Cells were suspended in 50 mM TRIS, pH 7.4, 2 mM EDTA, 250 mM Sucrose (buffer A) and 1× Complete protease inhibitor cocktail (Roche), and disrupted at 4° C. by N2 decompression using a cell disruption bomb (Parr Instrument). Following centrifugation at 1000 RPM for 10 min at 4° C., the supernatant was diluted (2×) in buffer A and centrifuged again at 19000 RPM for 75 min at 4° C. The pellet was then suspended in 10 mM HEPES, pH 7.4, 1 mM EDTA, 250 mM Sucrose (Buffer B), and 1× Complete EDTA-free protease inhibitor cocktail and homogenized using a potter. Membranes were flash frozen in liquid N2 and stored at −80° C.
Measurements of 35S-GTPγS Binding: Membranes (1 to 10 μg protein) prepared as described above, were incubated in 96-well Scintiplates (PerkinElmer) with test compounds diluted in DMSO, in 140 μl of 20 mM HEPES, pH 7.4, 10 mM MgCl2, 2 μg/well Saponin, 0.2% fatty acid free BSA (Assay buffer), 125 mM NaCl and 1.5 μM GDP. The assay was initiated with the addition of 60 μl of 1.5 nM [35S]-GTPγS (1100 Ci/mmol; GE Healthcare) in assay buffer. After 60 min incubation at 30° C. on a shaker, plates were centrifuged for 10 min at 2000 RPM. Supernatant was discarded and membrane bound radioactivity was measured on a PerkinElmer 1450 MicroBeta counter. Triplicate samples were averaged and expressed as % response relative to S1P activation in absence of compound (n=2).
The “potency” or the “activity” of the compounds is determined by the EC50 values as evaluated in the above described 35S-GTPγS binding assay.

S1P1 [2] = target: T1, S1P1; test: Receptor binding assay, [33P]sphingosine 1-phosphate competition, S1P1
Description: as §1
(§2) Receptor binding assay: [33P]sphingosine 1-phosphate (3000 Ci/mmol; American Radiolabeled Chemicals, Inc.) was added to test compounds in 20% DMSO by competition. Membranes and WGA SPA beads (GE Healthcare) were added to give a final volume of 100 μl in 96-well plates or 50 μl in 384-well plates with assay concentrations of 30 pM or 15 pM [33P]sphingosine 1-phosphate (respectively for S1P1 or S1P3), 50 mM HEPES, pH 7.5, 5 mM MgCl2, 100 mM NaCl, 0.4% fatty acid-free BSA, 1-5 μg/well of proteins in 96-well plates vs 0.6-1 μg/well of proteins in 384-well plates and 100 μg/well of WGA SPA beads in 96-well plates vs 75 μg/well of WGA SPA beads in 384-well plates. Binding was performed for 60 min at RT on a shaker and bound radioactivity was measured on a PerkinElmer 1450 MicroBeta counter. Triplicate samples were averaged and normalized as purcentage of inhibition relative to total binding (only DMSO in well) and non specific binding (1000-fold excess of unlabeled S1P). Binding data were analyzed using the GraphPad Prism program or Genedata software.

S1P3 = S1P3 (Homo sapiens, UniProt Q99500); test: Receptor binding assay, [33P]sphingosine 1-phosphate competition, S1P3
Description: as §1, §2

[3] = target: T2, human S1P1 Receptor fused to the green fluorescent protein (EGFP) (Homo sapiens, UniProt P21453); test: Internalization of S1P1 in S1P1-U2OS cells by cell imaging analysis; assay type: cell-based; conditions: 1 hour incubation, 384-well
T2 construct: host or cells: U2OS (human bone osteosarcoma epithelial cells), CMV promoter, geneticin selection
Description: Cellular Functional Assays: Internalization of Sphingosine-1-Phosphate Receptor 1 (S1P1) in a Human Cell Line (U2OS) in a 384-Well Format Using a Cell Imaging Analysis.
The S1P1 internalization assay was performed in 384 well plates (Corning® 384 black with clear bottom 3712) using S1P1-U2OS cells from BioImage (C039A), a human epithelial cell line (Human Bone Osteosarcoma Epithelial Cells). These cells expressed the human S1P1 Receptor fused to the green fluorescent protein (EGFP). A standard CMV promoter (cytomegalovirus promoter) controls the expression of S1P1-EGFP and continuous expression was maintained by addition of geneticin to the culture medium.
S1P1 Receptor desensitization induced the internalization of the membrane-localized S1P1-EGFP fusion protein to endosomes, which can be monitored by cell imaging analysis.
The cells are plated in low serum medium (Dulbecco's Modified Eagle Medium (DMEM) with Glutamax-1 and high glucose, 1% Penicillin/Streptomycin, 1% Fetal Calf Serum (FCS), 0.5 mg/ml Geneticin) overnight.
The next day, S1P1-U2OS cells are incubated in 20 μl serum free medium (DMEM with Glutamax-1 and high glucose, 0.1% of fatty-acid free Bovin Serum Albumin (BSA), 10 mM, N′-2-Hydroxyethylpiperazine-N′-2 ethanesulphonic acid (HEPES) 1M) for 2 hours at 37° C./5% CO2.
The cells are then treated with 4 μl compounds/agonists (6×/3% DMSO) for a total volume of 24 μl, and plates are incubated for 1 hour at 37° C./5% CO2.
S1P1-U2OS cells are fixed with 25 μl Paraformaldehyde 8% and stained with Hoechst 33345 dye (1:1000) for 20 minutes.
They were then washed 3 times with Phosphate Buffered Saline (PBS) and plates are sealed.
The internalization of the receptor S1P1-EGFP is measured on Cellomics by calculating the “spot count per object” (“object” corresponds to nuclear and “spot” corresponds to S1P1-EGFP receptor). Internalization data were observed thanks to vHCS View and analyzed using Genedata® software.

[4] = 96 well-plate, read-out: S1P1 binding IC50 (M) (96 well-plate)
[5] = 384 well-plate, read-out: S1P3 binding IC50 (M) (384 well-plate)
[6] = 384 well-plate, read-out: S1P1 binding IC50 (M) (384 well-plate)

T1 sequence (P21453 whole entry, species assumed): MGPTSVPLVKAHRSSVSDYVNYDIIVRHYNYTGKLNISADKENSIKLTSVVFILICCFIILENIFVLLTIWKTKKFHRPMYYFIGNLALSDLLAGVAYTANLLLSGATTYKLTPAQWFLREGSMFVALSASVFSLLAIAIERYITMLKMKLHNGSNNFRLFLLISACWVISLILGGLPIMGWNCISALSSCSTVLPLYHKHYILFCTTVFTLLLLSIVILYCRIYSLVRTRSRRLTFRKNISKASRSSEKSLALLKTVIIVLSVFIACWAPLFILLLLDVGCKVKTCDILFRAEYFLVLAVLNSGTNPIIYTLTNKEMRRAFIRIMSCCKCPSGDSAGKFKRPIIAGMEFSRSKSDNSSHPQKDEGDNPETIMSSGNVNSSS
T2 sequence (P21453 with tags, fused parts or gaps): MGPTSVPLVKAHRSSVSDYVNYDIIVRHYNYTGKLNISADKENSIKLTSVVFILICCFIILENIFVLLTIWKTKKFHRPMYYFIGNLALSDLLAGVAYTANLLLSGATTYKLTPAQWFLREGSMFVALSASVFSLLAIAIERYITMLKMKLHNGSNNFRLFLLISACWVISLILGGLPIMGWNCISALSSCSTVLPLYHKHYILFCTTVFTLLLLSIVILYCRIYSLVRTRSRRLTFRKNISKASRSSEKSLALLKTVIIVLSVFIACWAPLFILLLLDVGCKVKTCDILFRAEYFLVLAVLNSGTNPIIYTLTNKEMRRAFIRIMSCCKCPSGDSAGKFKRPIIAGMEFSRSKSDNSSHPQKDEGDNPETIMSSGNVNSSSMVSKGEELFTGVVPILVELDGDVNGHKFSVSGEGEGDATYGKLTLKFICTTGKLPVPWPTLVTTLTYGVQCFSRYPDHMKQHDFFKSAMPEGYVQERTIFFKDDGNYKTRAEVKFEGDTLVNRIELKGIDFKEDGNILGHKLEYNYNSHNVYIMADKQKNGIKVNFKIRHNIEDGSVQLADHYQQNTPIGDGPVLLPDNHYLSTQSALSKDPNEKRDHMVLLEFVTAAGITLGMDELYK
S1P3, sequence (Q99500 whole entry, species assumed): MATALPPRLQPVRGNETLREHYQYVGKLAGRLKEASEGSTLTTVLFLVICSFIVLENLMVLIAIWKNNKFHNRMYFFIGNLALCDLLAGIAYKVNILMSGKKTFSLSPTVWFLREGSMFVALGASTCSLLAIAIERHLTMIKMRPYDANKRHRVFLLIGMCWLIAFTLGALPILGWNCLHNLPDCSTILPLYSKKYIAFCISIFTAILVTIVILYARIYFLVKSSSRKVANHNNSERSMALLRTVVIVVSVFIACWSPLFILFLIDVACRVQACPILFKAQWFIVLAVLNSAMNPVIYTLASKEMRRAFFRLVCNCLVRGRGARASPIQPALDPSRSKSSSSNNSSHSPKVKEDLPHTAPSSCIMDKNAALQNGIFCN

SMILES | EC50 (S1P1 [1]) [µM] | other results
COCc1cc(-c2nc(-c3ccc(NCCC(=O)OC(C)(C)C)nc3)no2)ccc1-c1ccccc1C [Example 1, tert-butyl N-(5-{5-[2-(methoxymethyl)-2′-methylbiphenyl-4-yl]-1,2,4-oxadiazol-3-yl}pyridin-2-yl)-beta-alaninate] | 0.134 | –
COCc1cc(-c2nc(-c3ccc(NCC(=O)O)nc3)no2)ccc1-c1ccccc1C [Example 3, N-(5-{5-[2-(methoxymethyl)-2′-methylbiphenyl-4-yl]-1,2,4-oxadiazol-3-yl}pyridin-2-yl)glycine, hydrochloride salt] | 0.131 | –
COCc1cc(-c2nc(-c3ccnc(N(C)C)c3)no2)ccc1-c1ccccc1C [Example 6, 4-{5-[2-(methoxymethyl)-2′-methylbiphenyl-4-yl]-1,2,4-oxadiazol-3-yl}-N,N-dimethylpyridin-2-amine, hydrochloride salt] | 0.145 | –
COCc1cc(-c2nc(-c3ccnc(NCC(=O)OC(C)(C)C)c3)no2)ccc1-c1ccccc1C [Example 10, tert-butyl N-(4-{5-[2-(methoxymethyl)-2′-methylbiphenyl-4-yl]-1,2,4-oxadiazol-3-yl}pyridin-2-yl)glycinate] | 0.14 | –
COCc1cc(-c2nc(-c3cnc(N)cn3)no2)ccc1-c1ccccc1C [Example 16, 5-{5-[2-(methoxymethyl)-2′-methylbiphenyl-4-yl]-1,2,4-oxadiazol-3-yl}pyrazin-2-amine] | 0.0728 | –
COCc1cc(-c2nc(-c3ccc(OC)nc3)no2)ccc1-c1ccccc1C [Example 23, 2-methoxy-5-{5-[2-(methoxymethyl)-2′-methylbiphenyl-4-yl]-1,2,4-oxadiazol-3-yl}pyridine] | 0.0741 | –
COCc1cc(-c2nc(-c3ccc(C(N)=O)nc3)no2)ccc1-c1ccccc1C [Example 26, 5-{5-[2-(methoxymethyl)-2′-methylbiphenyl-4-yl]-1,2,4-oxadiazol-3-yl}pyridine-2-carboxamide] | 0.0452 | –
COCc1cc(-c2nc(-c3ccc(N(C)C)nc3)no2)ccc1-c1ccccc1C [Example 30, 5-{5-[2-(methoxymethyl)-2′-methylbiphenyl-4-yl]-1,2,4-oxadiazol-3-yl}-N,N-dimethylpyridin-2-amine] | 0.688 | –
COCc1cc(-c2nc(-c3ccc(N4CCCC4)nc3)no2)ccc1-c1ccccc1C [Example 31, 5-{5-[2-(methoxymethyl)-2′-methylbiphenyl-4-yl]-1,2,4-oxadiazol-3-yl}-2-pyrrolidin-1-ylpyridine] | 0.873 | –
Cc1ccccc1-c1ccc(-c2nc(-c3ccc(CN(C)CC(=O)O)nc3)no2)cc1C(F)(F)F [Example 74, 2-(methyl((5-(5-(2′-methyl-2-(trifluoromethyl)biphenyl-4-yl)-1,2,4-oxadiazol-3-yl)pyridin-2-yl)methyl)amino)acetic acid] | – | IC50 (S1P3; [5]): 2.88e-06 M; EC50 [3]: 0.0179 µM; IC50 (S1P1 [2]; [6]): 7.83e-09 M
Cc1ccccc1-c1ccc(-c2nc(-c3ccnc(CN(C)CC(=O)O)c3)no2)cc1C(F)(F)F [Example 75, 2-(((4-(5-(2-(trifluoromethyl)-2′-methylbiphenyl-4-yl)-1,2,4-oxadiazol-3-yl)pyridin-2-yl)methyl)(methyl)amino)acetic acid] | – | IC50 (S1P3; [5]): 2.26e-06 M; EC50 [3]: 0.0152 µM; IC50 (S1P1 [2]; [6]): 9.46e-09 M
COCc1cc(-c2nc(-c3ccc(CN(C)CC(=O)O)nc3)no2)ccc1-c1ccccc1C [Example 78, 2-(((5-(5-(2-(methoxymethyl)-2′-methylbiphenyl-4-yl)-1,2,4-oxadiazol-3-yl)pyridin-2-yl)methyl)(methyl)amino)acetic acid] | – | IC50 (S1P3; 96 well-plate, read-out: S1P3 binding IC50 (M) (96 well-plate)): 3.04e-06 M; IC50 (S1P3; [5]): 2.48e-06 M; EC50 [3]: 0.00948 µM; IC50 (S1P1 [2]; [4]): 3.01e-09 M; IC50 (S1P1 [2]; [6]): 3.5e-09 M

The remaining compounds from weak to strong by EC50 (S1P1 [1]), led by results:

EC50 (S1P1 [1]) [µM] | SMILES | other results
0.0438 | CNc1ccc(-c2noc(-c3ccc(-c4ccccc4C)c(COC)c3)n2)cn1 [Example 29, 5-{5-[2-(methoxymethyl)-2′-methylbiphenyl-4-yl]-1,2,4-oxadiazol-3-yl}-N-methylpyridin-2-amine] | –
0.0399 | COCc1cc(-c2nc(-c3ccc(C(=O)O)nc3)no2)ccc1-c1ccccc1C [Example 25, 5-{5-[2-(methoxymethyl)-2′-methylbiphenyl-4-yl]-1,2,4-oxadiazol-3-yl}pyridine-2-carboxylic acid, hydrochloride salt] | –
0.0326 | CC1CCCCN1c1ccc(-c2nc(-c3cnc(N)c(Cl)c3)no2)cc1C(F)(F)F (stereo not drawn) [Example 39, 3-chloro-5-{5-[4-(2-methylpiperidin-1-yl)-3-(trifluoromethyl)phenyl]-1,2,4-oxadiazol-3-yl}pyridin-2-amine] | –
0.0291 | COCc1cc(-c2nc(-c3cnc(NCC(=O)O)c(Cl)c3)no2)ccc1-c1ccccc1C [Example 38, N-(3-chloro-5-{5-[2-(methoxymethyl)-2′-methylbiphenyl-4-yl]-1,2,4-oxadiazol-3-yl}pyridin-2-yl)glycine, hydrochloride salt] | –
0.0223 | Cc1ccccc1-c1ccc(-c2nc(-c3ccc(N)nc3)no2)cc1C(F)(F)F [Example 19, 5-{5-[2′-methyl-2-(trifluoromethyl)biphenyl-4-yl]-1,2,4-oxadiazol-3-yl}pyridin-2-amine] | –
0.0146 | COCc1cc(-c2nc(-c3ccc(NC(C)=O)nc3)no2)ccc1-c1ccccc1C [Example 5, N-(5-{5-[2-(methoxymethyl)-2′-methylbiphenyl-4-yl]-1,2,4-oxadiazol-3-yl}pyridin-2-yl)acetamide, hydrochloride salt] | –
0.00999 | COCc1cc(-c2nc(-c3ccc(NCCCC(=O)O)nc3)no2)ccc1-c1ccccc1C [Example 8, 4-[(5-{5-[2-(methoxymethyl)-2′-methylbiphenyl-4-yl]-1,2,4-oxadiazol-3-yl}pyridin-2-yl)amino]butanoic acid, hydrochloride salt] | –
0.00945 | COCc1cc(-c2nc(-c3cnc(NCCC(=O)OC(C)(C)C)c(Cl)c3)no2)ccc1-c1ccccc1C [Example 35, tert-butyl N-(3-chloro-5-{5-[2-(methoxymethyl)-2′-methylbiphenyl-4-yl]-1,2,4-oxadiazol-3-yl}pyridin-2-yl)-beta-alaninate] | –
0.00163 | CCc1ccccc1-c1ccc(-c2nc(-c3ccc(N)nc3)no2)cc1COC [Example 12, 5-{5-[2′-ethyl-2-(methoxymethyl)biphenyl-4-yl]-1,2,4-oxadiazol-3-yl}pyridin-2-amine, hydrochloride salt] | IC50 (S1P1 [2]; [4]): 8.84e-09 M
